Test results as given in US20110091570A1, “Compositions and Devices for Antisepsis and Anticoagulation” (priority 2008, published 2011).
Several values for one entry are separate records, joined by “and”; a condition that tells them apart may be missing. Equal values may be shown once.

Tests used:
infected injuries = details: applied intravenously [Ref. 1]; cited from earlier work
Antithrombin III = Antithrombin III in citrate blood; assay type: biochemical, human; details: Example 7, 0.25 IE heparin
Protocol: (§1) Whole blood was taken from 11 volunteers and enriched with trisodium citrate (0.3 mL of a 0.106 molar solution per 3 mL whole blood) (S-Monovette®, Sarstedt, Nümbrecht, Germany). Commercial coagulation tests (as described in Example 6) were performed with the following samples: […]

citrate blood [1] = assay: Thrombin time (TT), BC Thrombin Reagent test; assay type: biochemical, human; details: Example 7, 0.25 IE heparin
Protocol: (§2) Whole blood was taken from volunteers and enriched with trisodium citrate (0.3 mL of a 0.106 molar solution per 3 mL whole blood) (S-Monovette®, Sarstedt, Nümbrecht, Germany). Routine coagulation tests were performed on the following samples:
(§3) The following commercial coagulation tests were performed according to the prescription of the manufacturer: prothrombin time (PT) was determined using Thromborel® S test (Dade Behring GmbH, Marburg, Germany); activated partial thromboplastin time (aPTT) was determined using Pathromtin* SL test (Dade Behring GmbH, Marburg, Germany); and thrombin time (TT) was determined using BC Thrombin Reagent test (Dade Behring GmbH, Marburg, Germany).
(§4) Whole blood was taken from a single volunteer and enriched with trisodium citrate (0.3 mL of a 0.106 molar solution per 3 mL whole blood) (S-Monovette®, Sarstedt, Nümbrecht, Germany). Portions of 1.8 mL citrate blood were mixed with 0.2 mL NCT in 0.9% saline. The following final (after dilution in blood) NCT concentrations were tested separately: 1% (55 mM); 0.5% (27.5 mM); 0.25% (13.75 mM); 0.1% (5.5 mM); 0.05% (2.75 mM); 0.025% (1.375 mM); and 0.01% (0.55 mM). A control without NCT was performed in parallel. The following commercial coagulation tests were performed according to the prescription of the manufacturer: prothrombin time (PT) was determined using Thromborel® S test (Dade Behring GmbH, Marburg, Germany), activated partial thromboplastin time (aPTT) was determined using Pathromtin* SL test (Dade Behring GmbH, Marburg, Germany); thrombin time (TT) was determined using BC Thrombin Reagent test (Dade Behring GmbH, Marburg, Germany); and fibrinogen was determined using Multifibren* U test (Dade Behring GmbH, Marburg, Germany).
as §1

D-Dimer = D-Dimer in citrate blood; assay type: biochemical, human; details: Example 7, 0.25 IE heparin
Protocol: as §1

Fibrinogen = biological target: T1, Fibrinogen (Homo sapiens, UniProt P02671+P02675+P02679); assay: Fibrinogen, Multifibren U test; assay type: biochemical; details: Example 7, 0.25 IE heparin
T1 construct: from tissue; host or cells: citrated whole blood of volunteers
T1 sequence (P02671 20-629 limits assumed): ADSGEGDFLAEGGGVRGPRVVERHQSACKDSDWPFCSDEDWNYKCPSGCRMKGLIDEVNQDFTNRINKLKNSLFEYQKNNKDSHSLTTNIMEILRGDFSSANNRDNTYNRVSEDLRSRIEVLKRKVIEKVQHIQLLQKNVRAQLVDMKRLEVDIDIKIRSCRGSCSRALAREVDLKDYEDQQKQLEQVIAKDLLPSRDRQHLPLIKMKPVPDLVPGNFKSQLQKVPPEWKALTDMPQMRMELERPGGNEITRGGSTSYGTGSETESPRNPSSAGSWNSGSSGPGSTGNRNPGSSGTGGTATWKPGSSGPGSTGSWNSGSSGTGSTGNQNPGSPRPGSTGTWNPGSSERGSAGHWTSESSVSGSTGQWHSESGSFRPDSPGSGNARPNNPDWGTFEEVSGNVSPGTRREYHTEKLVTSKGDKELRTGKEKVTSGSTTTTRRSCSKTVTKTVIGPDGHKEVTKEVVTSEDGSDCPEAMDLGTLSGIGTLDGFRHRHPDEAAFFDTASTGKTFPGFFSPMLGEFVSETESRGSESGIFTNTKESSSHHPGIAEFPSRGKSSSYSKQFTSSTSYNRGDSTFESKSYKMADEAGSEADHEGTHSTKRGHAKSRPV
T1 sequence (P02675 31-491): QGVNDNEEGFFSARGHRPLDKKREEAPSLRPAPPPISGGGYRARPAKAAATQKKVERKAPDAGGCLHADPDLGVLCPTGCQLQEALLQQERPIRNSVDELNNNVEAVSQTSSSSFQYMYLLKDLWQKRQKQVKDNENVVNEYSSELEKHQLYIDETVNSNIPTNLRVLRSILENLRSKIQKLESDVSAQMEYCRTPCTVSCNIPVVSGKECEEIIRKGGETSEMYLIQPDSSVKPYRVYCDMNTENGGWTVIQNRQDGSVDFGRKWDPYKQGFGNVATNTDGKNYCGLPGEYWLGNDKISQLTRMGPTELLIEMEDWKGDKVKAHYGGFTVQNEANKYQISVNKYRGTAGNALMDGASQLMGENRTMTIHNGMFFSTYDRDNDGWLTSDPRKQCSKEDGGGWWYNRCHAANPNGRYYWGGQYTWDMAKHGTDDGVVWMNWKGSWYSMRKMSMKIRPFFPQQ
T1 sequence (P02679 27-453): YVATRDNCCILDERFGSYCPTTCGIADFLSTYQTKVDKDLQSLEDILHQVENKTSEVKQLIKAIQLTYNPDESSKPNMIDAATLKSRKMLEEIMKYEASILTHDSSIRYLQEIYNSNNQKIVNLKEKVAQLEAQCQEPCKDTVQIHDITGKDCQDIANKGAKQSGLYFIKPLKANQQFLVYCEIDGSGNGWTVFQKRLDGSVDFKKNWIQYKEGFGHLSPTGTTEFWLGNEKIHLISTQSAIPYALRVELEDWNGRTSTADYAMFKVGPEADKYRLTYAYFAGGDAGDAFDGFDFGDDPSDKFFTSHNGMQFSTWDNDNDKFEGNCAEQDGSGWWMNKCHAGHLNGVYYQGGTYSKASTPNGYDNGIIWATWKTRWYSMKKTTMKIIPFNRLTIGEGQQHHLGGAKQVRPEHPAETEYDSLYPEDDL
Protocol: as §4, §1

citrate blood [2] = assay: Activated partial thromboplastin time (aPTT), Pathromtin SL test; assay type: biochemical, human
Protocol: as §2, §3, §4, §1

citrate blood [3] = assay: Prothrombin time (PT), Thromborel S test; assay type: biochemical, human; details: Example 7, 0.25 IE heparin
Protocol: as §2, §3, §4, §1

citrate blood [4] = assay: International normalized ratio (INR); assay type: biochemical, human; details: Example 7, 0.25 IE heparin
Protocol: as §1

Molecule | side effects of intravenous application (infected injuries) | Antithrombin III (Antithrombin III; individual subjects 1-11) | Antithrombin III, mean value (Antithrombin III; mean of 11 subjects) [%] | Thrombin time (TT) (citrate blood [1]; individual subjects) [s] | Thrombin time (TT), mean value (citrate blood [1]; mean of 11 subjects) [s] | D-Dimer (D-Dimer; individual subjects 1-11) | D-Dimer, mean value (D-Dimer; mean of 11 subjects) [µg/L] | Fibrinogen (Fibrinogen; individual subjects 1-11) | Fibrinogen, mean value (Fibrinogen; mean of 11 subjects) [mg/dL] | activated partial thromboplastin time (citrate blood [2]; Example 5, citrate blood plus 0.25 IE heparin, increased from 36) [s] | Activated partial thromboplastin time (aPTT) (citrate blood [2]; Example 7, 0.25 IE heparin, individual subjects 1-11) | Activated partial thromboplastin time (aPTT), mean value (citrate blood [2]; Example 7, 0.25 IE heparin, mean of 11 subjects) [s] | Prothrombin time (PT) (citrate blood [3]; individual subjects 1-11) | Prothrombin time (PT), mean value (citrate blood [3]; mean of 11 subjects) [%] | International normalized ratio (INR) (citrate blood [4]; individual subjects 1-11) | International normalized ratio (INR), mean value (citrate blood [4]; mean of 11 subjects)
Cc1ccc(S(=O)(=O)[N-]Cl)cc1.[Na+] [chloramine T] | severe side effects such as pericardial and lung edema |  |  |  |  |  |  |  |  |  |  |  |  |  |  | 
heparin [reference compound] |  | 93% and 79% and 99% and 83% (2×) and 81% (2×) and 88% and 113% and 75% and 94% | 88.1 | 400 | 400.0 | 217 µg/L and 199 µg/L and 353 µg/L and 146 µg/L and 76 µg/L and 183 µg/L and 285 µg/L and 159 µg/L and 150 µg/L and 203 µg/L and 157 µg/L | 193.5 | 214 mg/dL and 155 mg/dL and 313 mg/dL and 153 mg/dL and 234 mg/dL and 236 mg/dL and 379 mg/dL and 309 mg/dL and 259 mg/dL and 283 mg/dL and 249 mg/dL | 253.1 | 56 | 283 s and 187 s and 135 s and 177 s and 375 s and 300 s and 400 s and 216 s and 284 s and 195 s and 169 s | 247.4 | 66% and 58% and 89% (2×) and 62% and 74% and 54% and 69% and 78% and 68% and 72% | 70.8 | 1.2 (6×) and 1.3 (2×) and 1.1 (2×) and 1.4 | 1.2
